Columns and labels:
[1] = test system: MCF-7 breast carcinoma cells; assay: Suppression of thymidine incorporation, dose-response (FIG. 13); type: cell-based, human; settings: MCF-7 with 17-β-estradiol, 72 h; oleanolic acid statement at concentrations of 1 μM or less
Method: (§1) Inhibitors of cell proliferation are known to be useful chemopreventive and chemotherapeutic agents. CDDO was tested against a wide variety of cells derived from highly aggressive leukemias and carcinomas, as well as from non-neoplastic tissues. NRP-152 cells were grown as described in Danielpour et al., 1994. MCF-7 cells were grown in phenol red-free RPMI 1640/10% charcoal-stripped FBS with added 17-β-estradiol (10 μM). Triterpenoids were added at the time of plating, and 72 h later ^3H-thymidine (1 μCi/well) was added for the final 2 h of incubation. Incorporation of thymidine was measured after cells were precipitated with TCA (10%), washed, and solubilized. The symbols used in FIG. 13 are CDDO, ▪; TP-82, ◯; and oleanolic acid; ●.

[2] = test system: NRP-152 non-malignant prostate epithelium cells; assay: as above; type: cell-based, rat; settings: NRP-152, 72 h; oleanolic acid statement at concentrations of 1 μM or less
Method: as §1

[3] = test system: IFN-γ-induced NO production in mouse macrophages; assay: Inhibition of IFN-γ induced NO production in mouse macrophages; type: cell-based; settings: Mus musculus, Macrophage; 4 ng/mL IFN-γ, 48 hours, nitrite by Griess reaction; average of two separate experiments; read-out: IC50 for Inhibition of IFN-γ-Induced NO Production in Mouse Macrophages
Method: The inhibitory activities of these compounds and dexamethasone on IFN-γ induced NO production in mouse macrophages is shown below in Table 1. The following procedure for the assay ws used. Macrophages were harvested from female mice injected intraperitoneally four days previously with 4% thioglycollate. These cells were seeded in 96-well tissue culture plates and incubated with 4 ng/mL IFN-γ in the presence or absence of inhibitory test compounds. After 48 hours NO production (measured as nitrite by the Griess reaction) was determined. Full details of the assay are given in Ding et al., 1990; Bogdan et al., 1992.

[4] = test system: LCDB acute myelogenous leukemia cell line; assay: Monocytic differentiation, α-naphthyl acetate esterase staining; type: cell-based, human; settings: TGF-β1 2.5 ng/ml, 48 h
Method: CDDO induces monocytic differentiation in the poorly differentiated LCDB acute myelogenous leukemia cell line, derived from a chemotherapy-resistant patient at the NCI Pediatric Oncology Branch. FIG. 11 illustrates LCDB cells seeded in RPMI 1640/2% FBS, either alone (11A), with 2.5 ng/ml TGF-β1 (11B), with 10^−8 M CDDO (11C), or with both TGF-β1 and CDDO (11D). After 48 h, cytospin slide preparations were made and stained for α-naphthyl acetate esterase activity (kit from Sigma). PC12 cells were cultured for 5 days in gridded dishes in DMEM/10% FBS and 5% horse serum (Smith et al., 1997), either alone (11E), with 100 ng/ml 7S NGF (11F), with 10^−6 M CDDO (11G), or with both NGF and CDDO (11H). […] Methods for quantitative image analysis of size of cells and neurites have been described (De 1a Torre et al., 1997). Control cells in FIG. 11E are approximately 10 μm in diameter. 3T3-L1 cells were grown to confluency in DMEM/5% calf serum, and then treated once with CDDO in DMEM/10% FBS (FIG. 12A) or with CDDO and/or LG100268 in DMEM/10% FBS (FIG. 12B). Every two days thereafter, medium was changed to DMEM/10% FBS, without added CDD0 or LG100268. Cells were harvested on day 8 (FIG. 12A) or day 6 (FIG. 12B), and GPDH was measured in lysates, using a standard assay for consumption of NADH at 340 nm (Wise and Green, 1979).

IC50 [3]	Compound	suppressing thymidine incorporation [1]	suppressing thymidine incorporation [2]	induction of α-naphthyl esterase activity (monocytic differentiation) [4]
	CC1(C)CC[C@]2(C(=O)O)CC[C@]3(C)C(=CC[C@@H]4[C@@]5(C)CC[C@H](O)C(C)(C)[C@@H]5CC[C@]43C)[C@@H]2C1 [oleanolic acid, reference compound]	virtually without activity	virtually without activity	
1 nM	C[C@@H]1C[C@H]2[C@@H]3CCC4=CC(=O)C=C[C@]4(C)[C@@]3(F)[C@@H](O)C[C@]2(C)[C@@]1(O)C(=O)CO [dexamethasone, reference compound]			
	TGF-01: transforming growth factor-β1			induced x-naphthyl esterase activity
	3,11-dioxoolean-1,9-dien-28oic acid [TP-82]	markedly less active	markedly less active	

Reference: patent publication US20080234368A9, “Therapeutic compositions and methods of use” (Trustees of Dartmouth College, priority 1998, published 2008)
